# Laboratory results: patent US20140363489A1, “TREATMENT OF EYE DISEASE” (Panacea Pharmaceuticals, priority 2013, published 2014)
# “Also recorded” adds a separate entry of the source. Like-named read-outs stand apart in the source and are kept apart here.
# Experiments:
# retinal degeneration [1] = conditions: RSC rats; cited from earlier work
# retinal degeneration [2] = conditions: RCS, P23H, S334ter, photo stress rats, rd mice, CAR model rats (Ohguro, 2008); cited from earlier work
# ischemic stroke = ischemic stroke model (Jiang et al., 2006); cited from earlier work
# [3] = tested on: photoreceptor neurons of rd1 mouse retina; experiment: ex vivo rd1 mouse retina culture, photoreceptor rows and nucleus numbers; format: cell-based; conditions: 10 μM
# Protocol: The effect of PAN-811 was examined in an ex vivo model, in which retinas were isolated from rd1 mouse at PN7 and treated in culture with 0, 2 and 10 μM PAN-811 for 21 days (equal to PN28).
# The one model of RP study is rd1 mouse in which, like in RP patient, the gene for β-phospodiesterase is spontaneously mutated in rod photoreceptor neurons results in the rod cell loss. The apoptosis starts at postnatal day (PN) 9 to 10, peaks at PN13 and is completed at PN21.
# To test the effect PAN-811, retinas from rd1 (C3H strain) mice at PN7 were cultured in the presence of 0 (n=6), 2 (n=6) and 10 (n=7) μM PAN-811. After 21 days in vitro (equal to PN28), the hematoxylin/eosin stained retinal section was analyzed at five positions; the very center of the retina plus at two positions on each side of this, approximately 200 μm apart, and referred to as mid-periphery and periphery, respectively. The retina from the rd1 mouse commonly carried only a thin layer of photoreceptor neurons (FIG. 1A—photo on left). […] Quantitatively, a control group has two layers of photoreceptor neurons at center, mid-periphery or pheriphery (FIG. 1B). PAN-811 at a concentration of 10 μM, but not 2 μM, increased the row numbers from 2 to 3 (P<0.05) at all measured areas.
# Nucleus numbers for photoreceptor neurons that locate in center (n=7), mid-periphery (n=6) and periphery (n=6) were counted on photos (within 35 mm length of rode photoreceptor layer after magnification) by ImageJ software (NIH) and the data were expressed as percentage of untreated control. […]
# Twenty retinas from 10 rd1 mice (C3H strain) were dissected out at PN7 and mounted flat on HA mixed cellulose, 0.45 μm membranes fitted to culture dish inserts (Millipore Corp). […] The sections were analyzed and photographed under a microscope, blindly with respect to origin The rows of photoreceptors in the outer nuclear layer of the retina were quantitatively evaluated in a total of at least 30 sections for each preparation (4 slides from each preparation and 8 sections from each slide). […]
# [4] = cited from earlier work
molecule,measurement,setting,value
COC(=O)C1=C(C#N)NC(C)=C(C(=O)OC(C)C)C1c1cccc([N+](=O)[O-])c1 (stereo not shown) [Nilvadipine],effect against retinal degeneration,retinal degeneration [1],beneficial effect against retinal degeneration
same,effect against retinal degeneration,retinal degeneration [2],beneficial effects against retinal degeneration in all models tested
"NC(=S)N/N=C/c1ncccc1N [PAN-811, 3-aminopyridine-2-carboxaldehyde thiosemicarbazone]",neuroprotective activity,ischemic stroke,potent neuroprotective activity
same,increase of nucleus numbers of photoreceptor neurons vs untreated control,"[3]; 21 days in vitro, center, mid-periphery and periphery, P<0.01",about 50%
same,row numbers of photoreceptor neurons,"[3]; 21 days in vitro, center, mid-periphery, periphery, control 2 rows, P<0.05",3
same,loss of photoreceptor neurons / thickness of photoreceptor layer,"[3]; retinas from rd1 mouse at PN7, 21 days in culture",prevents loss of photoreceptor neurons; also recorded: prevented the loss of photoreceptor neurons; also recorded: thicker
"CNTF: Ciliary neurotrophic factor, neurotrophic factor delivered into eye (protein, UniProt P26441 1-200, looked up) Ciliary neurotrophic factor: MAFTEHSPLTPHRRDLCSRSIWLARKIRSDLTALTESYVKHQGLNKNINLDSADGMPVASTDQWSELTEAERLQENLQAYRTFHVLLARLLEDQQVHFTPTEGDFHQAIHTLLLQVAAFAYQIEELMILLEYKIPRNEADGMPINVGDGGLFEKKLWGLKVLQELSQWTVRSIHDLRFISSHQTGIPARGSHYIANNKKM",half-life in vivo,[4],2 to 6.67 h
